Assay results reported in patent publication US8865230B2, “Compositions and methods for treating parasitic infections” (TyraTech, Inc., priority 2006, dated 2014).

Key:
Tyramine receptor (TyrR) [1] = molecular target: T1, Tyramine receptor (TyrR) (Drosophila melanogaster, UniProt P22270); assay: Effect on intracellular cAMP in cells expressing TyrR (Example 14); format: cell-based
T1 construct: expressed in transfected cells
T1 sequence (P22270 27-601): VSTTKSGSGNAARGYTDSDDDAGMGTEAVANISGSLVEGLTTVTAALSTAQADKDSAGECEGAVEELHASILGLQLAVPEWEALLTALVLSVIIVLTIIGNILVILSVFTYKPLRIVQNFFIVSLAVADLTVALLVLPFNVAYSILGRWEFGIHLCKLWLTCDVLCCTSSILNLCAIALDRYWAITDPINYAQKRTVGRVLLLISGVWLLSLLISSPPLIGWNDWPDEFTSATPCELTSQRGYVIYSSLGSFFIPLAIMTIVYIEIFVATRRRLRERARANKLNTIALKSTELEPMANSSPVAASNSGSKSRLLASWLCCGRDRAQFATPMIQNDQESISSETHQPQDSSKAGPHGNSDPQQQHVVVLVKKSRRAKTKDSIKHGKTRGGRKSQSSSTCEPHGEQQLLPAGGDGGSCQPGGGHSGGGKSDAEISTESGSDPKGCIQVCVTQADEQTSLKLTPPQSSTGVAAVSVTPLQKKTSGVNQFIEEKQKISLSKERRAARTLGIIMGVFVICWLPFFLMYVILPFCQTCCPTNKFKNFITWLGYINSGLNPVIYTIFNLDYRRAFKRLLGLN

Tyramine receptor (TyrR) [2] = molecular target: T1, Tyramine receptor (TyrR); assay: Effect on intracellular Ca2+ in cells expressing TyrR (Example 14); format: cell-based
Hymenolepis nana = assay: H. nana in vivo, infected mice treated orally with single test agents Rx (Example 1); settings: 400 mg/kg orally daily for 5 days
Tyramine receptor (TyrR) [3] = molecular target: T1, Tyramine receptor (TyrR); assay: Tyramine receptor binding affinity in cells expressing TyrR (Example 14)

| Compound | Effects Intracellular cAMP (Yes or No) (Tyramine receptor (TyrR) [1]) | Effects Intracellular Ca2+ (Yes or No) (Tyramine receptor (TyrR) [2]) | Tyramine Receptor Binding Affinity (High or Low) (Tyramine receptor (TyrR) [3]) | Egg Count (X ± SD), During Treatment 1st Day (Hymenolepis nana) | Egg Count (X ± SD), During Treatment 3rd Day (Hymenolepis nana) |
| --- | --- | --- | --- | --- | --- |
| C=CCc1ccc(O)c(OC)c1 [Eugenol] | No | Yes |  |  |  |
| Cc1ccc(C(C)C)cc1O [Rx 4, carvacrol] |  |  |  | 5 ± 0.6 | 1 ± 1.9 |
| OCc1ccccc1 [benzyl alcohol] | Yes | No |  |  |  |
| OCC=Cc1ccccc1 [cinnamyl alcohol] | No | Yes |  |  |  |
| CCC(=O)OCCc1ccccc1 [phenethyl proprionate] | Yes | No |  |  |  |
| CCCCCCCCCCCCOS(=O)(=O)[O-].[Na+] [sodium lauryl sulfate] | No | No |  |  |  |
| Cc1ccc(C(C)C)c(O)c1 [thymol] | No | Yes | high |  |  |
| CC1=CCC2CC1C2(C)C (stereo not drawn) [α-pinene] | No | No |  |  |  |

Further lines, with some results ahead:

| Effects Intracellular cAMP (Yes or No) (Tyramine receptor (TyrR) [1]) | Effects Intracellular Ca2+ (Yes or No) (Tyramine receptor (TyrR) [2]) | Tyramine Receptor Binding Affinity (High or Low) (Tyramine receptor (TyrR) [3]) | Compound | Egg Count (X ± SD), During Treatment 1st Day (Hymenolepis nana) | Egg Count (X ± SD), During Treatment 3rd Day (Hymenolepis nana) |
| --- | --- | --- | --- | --- | --- |
| Yes | Yes |  | CC(C)=CCC/C(C)=C/CO [Rx 5, geraniol] | 14 ± 13.9 |  |
| Yes | Yes |  | CC12CCC(CC1)C(C)(C)O2 [Rx 6, cineol] | 5 ± 9.5 | 1 ± 1.2 |
| Yes | Yes | Low | CC=Cc1ccc(OC)cc1 [anethole] |  |  |
| Yes and No | Yes |  | C=C(C)[C@H]1CC=C(C)CC1 [d-limonene] |  |  |
| No | Yes | high | C=CC(C)(O)CCC=C(C)C (stereo not shown) [linalool] |  |  |
| Yes | Yes | low | Cc1ccc(C(C)C)cc1 [p-cymene] |  |  |
| Yes | Yes |  | CCC(C)(O)CCCC(C)C (stereo not shown) [tetrahydrolinalool] |  |  |
